From US20080207532A1, “Use of Nordihydroguaiaretic Acid Derivatives in the Treatment of Drug Resistant Cancer, Viral and Microbial Infection” (Johns Hopkins University, priority 2004, published 2008)

Tests used:
MCF-7 = details: MCF-7; read-out: IC50 from previous studies; cited from earlier work
[1] = tested on: NCI/ADR-RES multidrug resistant breast cancer xenografts; assay: combination therapy against NCI/ADR-RES xenografts in nude mice; details: two weeks
Experimental: Nude mice bearing NCI/ADR-RES multidrug resistant breast cancer xenografts were used as a model for combination therapy to further examine synergy between M4N and paclitaxel.
T-cell deficient female nude (nu/nu) mice, 5-6 weeks of age, were purchased from Charles River Laboratories (Wilmington, Mass.) and were housed in a pathogen-free room. All experiments involving the mice were carried out in accordance with the Johns Hopkins University Animal Care and Use Committee guideline. The mice were implanted subcutaneously in both flanks with 1×10^6 NCI/ADR-RES cells suspended in Hank's balanced salt solution (HBSS). […] For intraperitoneal (i.p.) administration, M4N, maltose-M3N and paclitaxel were dissolved in a recently developed reduced cremophor solution containing 20% (v) dehydrated ethanol, 20% (v) Cremophor EL, PEG 300, <11% (v) Tween 80 (22). Daily injections of 0.05 ml were performed for each drug and drug combination.
Tumors were measured in two perpendicular dimensions once every seven days, and the tumor volumes were calculated according to the following formula: […]
where a is the width of the tumor (smaller diameter) and b is the length (larger diameter) (23). The mean tumor volume and standard error were calculated for each treatment group. Relative mean tumor volumes, (V/V0), where V is the mean tumor volume at a particular time and V0 is the mean tumor volume at day 0 (23), were determined and used to assess tumor growth inhibition (T/C value) using the following equation:
T/C(%)=Relative Mean Tumor Volume of treated/Relative Mean Volume of control×100.
The NCI standard for the minimal level for antitumor activity (T/C≦42%) was adopted (25). At the termination of the experiment the tumors were excised and fixed in formaldehyde. Tissue samples were then sent to Paragon Bioservices for histology and immunohistochemistry using antibodies against human P-glycoprotein (Pgp).
Two dosage regimens of M4N and paclitaxel, both with a constant molar ratio of 20:1 (M4N:paclitaxel), were employed as determined by in vitro testing to be synergistic as shown in Table 1. The 8 and 16 μmol m^2 doses of pactitaxel were submaximal based on values from other studies (22) and the M4N doses of 160 and 320 μmol/m^2 were arrived at by decreasing the maximum tolerated dose used in our previous study with MCF-7 breast cancer xenografts (5). An additional NDGA derivative was also tested. Maltose-M3N was developed as a water soluble alternative to M4N, however for consistency it was dissolved in the same reduced cremophor solvent system as M4N and paclitaxel for this study.

MCF-7 cells = assay: MTT cell proliferation assay, MCF-7 cells in culture; format: cell-based, human; details: 72 hours
Experimental: (§1) MCF-7 cells (a human mammary carcinoma cell line, obtainable from the ATCC P.O. Box 1549, Manassas, Va. 20108) were seeded into 24-well plates at 1.5×10^4 cells/well in 500 μl of Dulbecco's modified Eagle's medium (DMEM) containing 10% fetal bovine serum (FBS) and the antibiotics penicillin and streptomycin. Varying concentrations of M4N were added the next day. After incubation for an additional 3 days, cell proliferation was assessed by the MTT assay. […] The mice were assigned to a treatment group that received M4N dissolved in a 6% Cremaphor EL, 6% ethanol and 88% saline, and to a control group that received the vehicle only. […] Mice received a single daily 100 μL intraperitoneal (i.p.) injection containing 2 mg of M4N for 3 weeks. The control mice received an equal volume of the vehicle. […] The results from the individual mice were combined and the average tumor volume was determined. Statistical significance of the mean differences in tumor volume was assessed by Student's t-test.

NCI/ADR-RES xenografts = NCI/ADR-RES xenografts in nude mice, M4N i.p. or oral; format: in vivo; details: 21 days systemic treatment, IP injection daily or oral feeding in food balls
Experimental: as §1

[2] = dogs and rabbits, subcutaneous, intravaginal and IV formulations; cited from earlier work
solubility in water = format: physicochemical
MDR1 mRNA = assay: RT-PCR of MDR1 mRNA in NCI/ADR-RES cells; format: cell-based, human; details: 20 μM M4N, three days
Experimental: Total RNA was isolated using the Trizol Reagent (Invitrogen, Carlsbad, Calif.). RT-PCR was carried out with the Superscript II One-Step RT-PCR system with Platinum Taq DNA Polymerase (Invitrogen) according to the manufacturer's protocol using oligonucleotide primers specific for MDR1: […]
The RT-PCR products were separated by agarose gel electrophoresis and stained with ethidium bromide. Relative band intensities were quantified by ImageJ software (NIH, Bethesda, Md.).
We next examined the effect of M4N on MDR1 gene expression to determine whether the observed synergy between M4N and Dox and paclitaxel in multidrug resistant cells is the result of reversal of the MDR phenotype. We postulated that M4N, through its ability to inhibit Sp1 binding, might down regulate MDR1 gene expression. To examine this possibility, NCI/ADR-RES cells were exposed to 0, 5, 10 and 20 μM M4N for three days, after which total RNA and protein were examined for levels of MDR1 mRNA and Pgp. […] The levels of Pgp were normalized to cyclin B1, whose expression, according to our previous results, is unaffected by M4N (4, 5).

NCI/ADR-RES cells = assay: cell proliferation, NCI/ADR-RES cells in culture; format: cell-based, human; details: 72 hours
MCF-7 xenografts = MCF-7 xenografts in nude mice, M4N i.p. or oral; format: in vivo; details: 21 days systemic treatment, IP injection daily or oral feeding in food balls
Experimental: as §1

[3] = higher regimen: M4N or Mal-M3N 320, Px 16 μmoles/m^2, i.p. daily
[4] = lower regimen: M4N 160, Px 8 μmoles/m^2, i.p. daily

SMILES: COc1ccc(C[C@@H](C)[C@@H](C)Cc2ccc(OC)c(OC)c2)cc1OC [M4N, tetra-o-methyl nordihydroguaiaretic acid]
- IC50 (MCF-7): ~7 µM
- Deaths [1, 3]: 0/7
- Relative Mean Tumor Volume [1, 3]: 1.33
- T/C % [1, 3]: 50.8%
- Deaths [1, 4]: 0/7
- Mean Body Weight Change [1, 4]: +0.2 g/mouse
- Relative Mean Tumor Volume [1, 4]: 1.70
- T/C % [1, 4]: 64.9%
- M4N required to achieve a total cell arrest (MCF-7 cells): 20 µM
- tumor sizes of xenografts (NCI/ADR-RES xenografts): greatly reduced the tumor sizes
- amount of drug in the blood [2]: barely detectable
- solubility in aqueous solution (solubility in water): limited solubility
- level of MDR1 mRNA, of the untreated value, normalized to GAPDH (MDR1 mRNA): 36.3%
- M4N required to achieve a total cell arrest (NCI/ADR-RES cells): 40 µM
- tumor sizes of xenografts (MCF-7 xenografts): greatly reduced the tumor sizes
